Starred links: 1 amine or outer side, 2 acyl side, 3 side chain; linkers in the order of their positions; H or OH if unused. Non-standard residues stand in square brackets, D forms with d. Residues, ends and D or L forms follow the SMILES beside them. Groups on a side chain read outwards from the residue. *: point of attachment. C18 diacid = O=C(O)CCCCCCCCCCCCCCCCC(=O)*; γGlu = O=C(O)[C@H](CCC(=O)[*:2])N[*:1]; Ac4c = NC1(C(=O)O)CCC1; AEEA = NCCOCCOCC(=O)O; Aib = CC(C)(N)C(=O)O
Each molecule was assayed against T1, human GLP-1 receptor (Homo sapiens, UniProt P43220) (assay: Assay (I)(a) GLP-1 receptor activation, CRE luciferase reporter gene assay in BHK cells). Settings: without presence of serum albumin; read-out: GLP-1R EC50 (pM) [Assay (I)(a)].
T1 construct: expressed in transfected cells; host or cells: membranes of BHK cells (parent BHKTS13), clone FCW467-12A
T1 sequence (P43220 24-463): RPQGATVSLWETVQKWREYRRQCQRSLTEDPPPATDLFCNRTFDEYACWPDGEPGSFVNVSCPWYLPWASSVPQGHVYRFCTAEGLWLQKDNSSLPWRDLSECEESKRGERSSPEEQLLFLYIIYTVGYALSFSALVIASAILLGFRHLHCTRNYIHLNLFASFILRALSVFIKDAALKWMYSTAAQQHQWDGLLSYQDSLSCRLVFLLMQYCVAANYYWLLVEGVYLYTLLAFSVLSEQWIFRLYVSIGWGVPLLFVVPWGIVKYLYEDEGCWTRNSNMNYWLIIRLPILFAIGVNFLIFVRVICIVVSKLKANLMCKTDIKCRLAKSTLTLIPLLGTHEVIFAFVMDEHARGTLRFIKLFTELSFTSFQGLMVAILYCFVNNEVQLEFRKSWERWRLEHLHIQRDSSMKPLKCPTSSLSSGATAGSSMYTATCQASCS
Type: cell-based
In short: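 Stable BHK clone expressing human GLP-1 receptor with CRE-driven firefly luciferase, 5×10EE3 cells/well in medium with 2% ovalbumin and 0.2% Pluronic F-68. Compounds at 1×10EE-13 to 1×10EE-6 M final, 3 h at 37° C.; luminescence read, EC50 (pM) from four-parameter fit.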

EC50	SMILES
2 pM	CC[C@H](C)[C@H](NC(=O)[C@H](CC(C)C)NC(=O)[C@H](Cc1c[nH]c2ccccc12)NC(=O)[C@H](CCC(N)=O)NC(=O)[C@@H](NC(=O)[C@H](Cc1ccccc1)NC(=O)[C@H](CCC(=O)O)NC(=O)[C@H](CCCNC(=N)N)NC(=O)[C@H](C)NC(=O)[C@H](CCCNC(=N)N)NC(=O)[C@H](CCCNC(=N)N)NC(=O)[C@H](CO)NC(=O)[C@H](CCC(=O)O)NC(=O)[C@H](CC(C)C)NC(=O)[C@H](Cc1ccc(O)cc1)NC(=O)[C@H](CCCCN)NC(=O)[C@H](CO)NC(=O)[C@H](CC(C)C)NC(=O)[C@H](CC(=O)O)NC(=O)[C@H](CO)NC(=O)[C@@H](NC(=O)[C@H](Cc1ccccc1)NC(=O)[C@@H](NC(=O)CNC(=O)[C@H](CCC(N)=O)NC(=O)C(C)(C)NC(=O)[C@@H](N)Cc1c[nH]cn1)[C@@H](C)O)[C@@H](C)O)C(C)C)C(=O)N[C@@H](CCCCNC(=O)CC[C@H](NC(=O)CC[C@H](NC(=O)COCCOCCNC(=O)COCCOCCNC(=O)CC[C@H](NC(=O)CC[C@H](NC(=O)CCCCCCCCCCCCCCCCC(=O)O)C(=O)O)C(=O)O)C(=O)O)C(=O)O)C(=O)N[C@H](C(N)=O)[C@@H](C)O [Chem. 25, N^ε28-[(4S)-4-carboxy-4-[[(4S)-4-carboxy-4-[[2-[2-[2-[[2-[2-[2-[[(4S)-4-carboxy-4-[[(4S)-4-carboxy-4-(17-carboxyheptadecanoylamino)butanoyl]amino]butanoyl]amino]ethoxy]ethoxy]acetyl]amino]ethoxy]ethoxy]acetyl]amino]butanoyl]amino]butanoyl]-[Aib2,Leu10,Glu15,Arg20,Glu21,Ile27,Lys28]-Glucagon amide] (H-H[Aib]QGTFTSDLSKYLESRRAREFVQWLIK([γGlu-γGlu-AEEA-AEEA-γGlu-γGlu-C18 diacid])T-NH2; N-terminus assumed)
2 pM	CC[C@H](C)[C@H](NC(=O)[C@H](CC(=O)O)NC(=O)[C@H](CO)NC(=O)[C@@H](NC(=O)[C@H](Cc1ccccc1)NC(=O)[C@@H](NC(=O)CNC(=O)[C@H](CCC(N)=O)NC(=O)C1(NC(=O)[C@@H](N)Cc2c[nH]cn2)CCC1)[C@@H](C)O)[C@@H](C)O)C(=O)N[C@@H](CO)C(=O)N[C@@H](CCCCN)C(=O)N[C@@H](Cc1ccc(O)cc1)C(=O)N[C@@H](CC(C)C)C(=O)N[C@@H](CCC(=O)O)C(=O)N[C@@H](CO)C(=O)N[C@@H](CCCNC(=N)N)C(=O)N[C@@H](CCCNC(=N)N)C(=O)N[C@@H](C)C(=O)N[C@@H](CCCNC(=N)N)C(=O)N[C@@H](CCC(=O)O)C(=O)N[C@@H](Cc1ccccc1)C(=O)N[C@H](C(=O)N[C@@H](CCC(N)=O)C(=O)N[C@@H](Cc1c[nH]c2ccccc12)C(=O)N[C@@H](CC(C)C)C(=O)N[C@H](C(=O)N[C@@H](CCCCNC(=O)CC[C@H](NC(=O)CC[C@H](NC(=O)COCCOCCNC(=O)COCCOCCNC(=O)CC[C@H](NC(=O)CC[C@H](NC(=O)CCCCCCCCCCCCCCCCC(=O)O)C(=O)O)C(=O)O)C(=O)O)C(=O)O)C(=O)N[C@H](C(N)=O)[C@@H](C)O)[C@@H](C)CC)C(C)C [Chem. 26, N^ε28-[(4S)-4-carboxy-4-[[(4S)-4-carboxy-4-[[2-[2-[2-[[2-[2-[2-[[(4S)-4-carboxy-4-[[(4S)-4-carboxy-4-(17-carboxyheptadecanoylamino)butanoyl]amino]butanoyl]amino]ethoxy]ethoxy]acetyl]amino]ethoxy]ethoxy]acetyl]amino]butanoyl]amino]butanoyl]-[Acb2,Ile10,Glu15,Arg20,Glu21,Ile27,Lys28]-Glucagon amide] (H-H[Ac4c]QGTFTSDISKYLESRRAREFVQWLIK([γGlu-γGlu-AEEA-AEEA-γGlu-γGlu-C18 diacid])T-NH2; N-terminus assumed)
3 pM	CC[C@H](C)[C@H](NC(=O)[C@H](CC(C)C)NC(=O)[C@H](Cc1c[nH]c2ccccc12)NC(=O)[C@H](CCC(N)=O)NC(=O)[C@@H](NC(=O)[C@H](Cc1ccccc1)NC(=O)[C@H](CCC(=O)O)NC(=O)[C@H](CCCNC(=N)N)NC(=O)[C@H](C)NC(=O)[C@H](CCCNC(=N)N)NC(=O)[C@H](CCCNC(=N)N)NC(=O)[C@H](C)NC(=O)[C@H](CC(=O)O)NC(=O)[C@H](CC(C)C)NC(=O)[C@H](Cc1ccc(O)cc1)NC(=O)[C@H](CCCCN)NC(=O)[C@H](CO)NC(=O)[C@H](CC(C)C)NC(=O)[C@H](CC(=O)O)NC(=O)[C@H](CO)NC(=O)[C@@H](NC(=O)[C@H](Cc1ccccc1)NC(=O)[C@@H](NC(=O)CNC(=O)[C@H](CCC(N)=O)NC(=O)C(C)(C)NC(=O)[C@@H](N)Cc1c[nH]cn1)[C@@H](C)O)[C@@H](C)O)C(C)C)C(=O)N[C@@H](CC(N)=O)C(=O)N[C@@H](CCCCNC(=O)CC[C@H](NC(=O)CC[C@H](NC(=O)COCCOCCNC(=O)COCCOCCNC(=O)CC[C@H](NC(=O)CCCCCCCCCCCCCCCCC(=O)O)C(=O)O)C(=O)O)C(=O)O)C(N)=O [Chem. 21, N^ε29-[(4S)-4-carboxy-4-[[(4S)-4-carboxy-4-[[2-[2-[2-[[2-[2-[2-[[(4S)-4-carboxy-4-(17-carboxyheptadecanoylamino)butanoyl]amino]ethoxy]ethoxy]acetyl]amino]ethoxy]ethoxy]acetyl]amino]butanoyl]amino]butanoyl]-[Aib2,Leu10,Ala16,Arg20,Glu21,Ile27,Lys29]-Glucagon amide] (H-H[Aib]QGTFTSDLSKYLDARRAREFVQWLINK([γGlu-γGlu-AEEA-AEEA-γGlu-C18 diacid])-NH2; N-terminus assumed)
2 pM	CC[C@H](C)[C@H](NC(=O)[C@H](CC(C)C)NC(=O)[C@H](Cc1c[nH]c2ccccc12)NC(=O)[C@H](CCC(N)=O)NC(=O)[C@@H](NC(=O)[C@H](Cc1ccccc1)NC(=O)[C@H](CC(=O)O)NC(=O)[C@H](CCC(N)=O)NC(=O)[C@H](C)NC(=O)[C@H](CCCNC(=N)N)NC(=O)[C@H](CCCNC(=N)N)NC(=O)[C@H](C)NC(=O)[C@H](CC(=O)O)NC(=O)[C@H](CC(C)C)NC(=O)[C@H](Cc1ccc(O)cc1)NC(=O)[C@H](CCCCN)NC(=O)[C@H](CO)NC(=O)[C@H](CC(C)C)NC(=O)[C@H](CC(=O)O)NC(=O)[C@H](CO)NC(=O)[C@@H](NC(=O)[C@H](Cc1ccccc1)NC(=O)[C@@H](NC(=O)CNC(=O)[C@H](CCC(N)=O)NC(=O)C(C)(C)NC(=O)[C@@H](N)Cc1c[nH]cn1)[C@@H](C)O)[C@@H](C)O)C(C)C)C(=O)N[C@@H](CCCCNC(=O)COCCOCCNC(=O)COCCOCCNC(=O)CC[C@H](NC(=O)CC[C@H](NC(=O)CC[C@H](NC(=O)CCCCCCCCCCCCCCCCC(=O)O)C(=O)O)C(=O)O)C(=O)O)C(=O)N[C@H](C(N)=O)[C@@H](C)O [Chem. 7, N^ε28-[2-[2-[2-[[2-[2-[2-[[(4S)-4-carboxy-4-[[(4S)-4-carboxy-4-[[(4S)-4-carboxy-4-(17-carboxyheptadecanoylamino)butanoyl]amino]butanoyl]amino]butanoyl]amino]ethoxy]ethoxy]acetyl]amino]ethoxy]ethoxy]acetyl]-[Aib2,Leu10,Ala16,Ile27,Lys28]-Glucagon amide] (H-H[Aib]QGTFTSDLSKYLDARRAQDFVQWLIK([AEEA-AEEA-γGlu-γGlu-γGlu-C18 diacid])T-NH2; N-terminus assumed)
